The first assay deals with T1, PIP4K2C (Homo sapiens, UniProt Q8TBX8).
T1 sequence (Q8TBX8 1-421): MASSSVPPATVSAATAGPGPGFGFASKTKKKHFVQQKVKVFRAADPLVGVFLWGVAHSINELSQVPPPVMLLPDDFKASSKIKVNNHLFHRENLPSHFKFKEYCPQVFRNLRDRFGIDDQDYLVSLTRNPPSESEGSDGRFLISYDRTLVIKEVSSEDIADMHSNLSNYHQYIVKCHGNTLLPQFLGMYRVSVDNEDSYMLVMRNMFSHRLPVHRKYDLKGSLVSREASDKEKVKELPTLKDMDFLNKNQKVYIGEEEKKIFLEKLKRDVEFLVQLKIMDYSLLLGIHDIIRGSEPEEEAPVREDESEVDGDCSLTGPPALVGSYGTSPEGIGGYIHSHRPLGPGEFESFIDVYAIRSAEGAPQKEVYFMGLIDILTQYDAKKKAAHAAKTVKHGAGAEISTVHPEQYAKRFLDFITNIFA
The assay can be described thus: HiBiT PIP4K2C degradation assay in MOLT-4 cells (endogenous PIP4K2C C-terminally tagged with HiBiT). Conditions: 6 hours of incubation time, rather than 24 hours; MOLT-4, top concentration 10 micromolar; read-out: HiBIT-degradation MOLT4 PIP4k2C DC50 (6 hours, marked *). Further details: untagged in primary human PBMCs and monocyte-derived dendritic cells. The format is cell-based. Put shortly:
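Cells are plated onto compound dilutions (10 points, 3-fold, top 10 micromolar) and incubated 24 or 6 hours at 37 C. Lytic HiBiT detection then quantifies tagged endogenous PIP4K2C in MOLT-4, and a Hill fit yields DC50.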
Background: With HiBiT, luminescence reflects the tagged protein that the partner subunit can reach.
One may read the DC50 as the midpoint of the concentration-degradation curve. As to `O=C1CCC(Nc2ccc(N3CCC(N4CCC(C(=O)N[C@H]5CC[C@H](Nc6ncc(F)c(-c7cccc(N8CCOC8=O)c7)n6)CC5)CC4)CC3)c(F)c2)C(=O)N1` (stereo partly drawn) [Compound 596, trans-1′-(4-((2,6-dioxopiperidin-3-yl)amino)-2-fluorophenyl)-N-(4-((5-fluoro-4-(3-(2-oxooxazolidin-3-yl)phenyl)pyrimidin-2-yl)amino)cyclohexyl)-[1,4′-bipiperidine]-4-carboxamide], the DC50 was below 500 nM.
As for `O=C1CCC(Nc2ccc(N3CCC(N4CCC(C(=O)N[C@H]5CC[C@H](Nc6ncc(F)c(-c7cccc(N8CCCOC8=O)c7)n6)CC5)CC4)CC3)c(F)c2)C(=O)N1` (stereo partly drawn) [Compound 597, trans-1′-(4-((2,6-dioxopiperidin-3-yl)amino)-2-fluorophenyl)-N-(4-((5-fluoro-4-(3-(2-oxo-1,3-oxazinan-3-yl)phenyl)pyrimidin-2-yl)amino)cyclohexyl)-[1,4′-bipiperidine]-4-carboxamide], the DC50 was below 500 nM.
As for `O=C1CCC(Nc2ccc(N3CCC(N4CCC(C(=O)N[C@H]5CC[C@H](Nc6ncc(F)c(-c7cccc(-n8ccccc8=O)c7)n6)CC5)CC4)C(F)(F)C3)c(F)c2)C(=O)N1` (stereo partly drawn) [Compound 598, trans-1′-(4-((2,6-dioxopiperidin-3-yl)amino)-2-fluorophenyl)-3′,3′-difluoro-N-(4-((5-fluoro-4-(3-(2-oxopyridin-1(2H)-yl)phenyl)pyrimidin-2-yl)amino)cyclohexyl)-[1,4′-bipiperidine]-4-carboxamide], the DC50 was below 500 nM.
Same read-out and setting: the value for `O=C1CCC(Nc2ccc(N3CCC(N4CCC(C(=O)N[C@H]5CC[C@H](Nc6ncc(F)c(-c7cccc(-c8ccc[nH]c8=O)c7)n6)CC5)CC4)C(F)(F)C3)c(F)c2)C(=O)N1` (stereo partly drawn) [Compound 599, 1′-(4-((2,6-dioxopiperidin-3-yl)amino)-2-fluorophenyl)-3′,3′-difluoro-N-(trans-4-((5-fluoro-4-(3-(2-oxo-1,2-dihydropyridin-3-yl)phenyl)pyrimidin-2-yl)amino)cyclohexyl)-[1,4′-bipiperidine]-4-carboxamide] was below 500 nM; that for `O=C1CCC(Nc2ccc(N3CCN([C@H]4CC[C@H](C(=O)N[C@H]5CC[C@H](Nc6ncc(F)c(-c7cccc(-c8ccccc8)c7)n6)CC5)CC4)CC3)c(F)c2)C(=O)N1` (stereo partly drawn) [Compound 604, trans-(1r,4R)—N-((1r,4R)-4-((4-([1,1′-biphenyl]-3-yl)-5-fluoropyrimidin-2-yl)amino)cyclohexyl)-4-(4-(4-((2,6-dioxopiperidin-3-yl)amino)-2-fluorophenyl)piperazin-1-yl)cyclohexane-1-carboxamide] was below 500 nM; that for `O=C1CCC(Nc2ccc(N3CCN([C@H]4CC[C@H](C(=O)N[C@H]5CC[C@H](Nc6ncc(F)c(-c7cccc(N8CCOCC8)c7)n6)CC5)CC4)CC3)c(F)c2)C(=O)N1` (stereo partly drawn) [Compound 605, trans-(1r,4R)-4-(4-(4-((2,6-dioxopiperidin-3-yl)amino)-2-fluorophenyl)piperazin-1-yl)-N-((1r,4R)-4-((5-fluoro-4-(3-morpholinophenyl)pyrimidin-2-yl)amino)cyclohexyl)cyclohexane-1-carboxamide] was below 500 nM.
On the same count and under the same terms, the value for `O=C1CCC(Nc2ccc(N3CCN([C@H]4CC[C@H](C(=O)N[C@H]5CC[C@H](Nc6ncc(Cl)c(-c7cccc(-n8ccccc8=O)c7)n6)CC5)CC4)CC3)c(F)c2)C(=O)N1` (stereo partly drawn) [Compound 632, trans-(1r,4R)—N-((1r,4R)-4-((5-chloro-4-(3-(2-oxopyridin-1 (2H)-yl)phenyl)pyrimidin-2-yl)amino)cyclohexyl)-4-(4-(4-((2,6-dioxopiperidin-3-yl)amino)-2-fluorophenyl)piperazin-1-yl)cyclohexane-1-carboxamide] was below 500 nM; that for `O=C1CCC(Nc2ccc(C3CCN(C4CC5(CC(OC(=O)N6CCC(Nc7ncc(F)c(-c8cccc(-n9ccccc9=O)c8)n7)CC6)C5)C4)CC3)c(F)c2)C(=O)N1` (centres unmarked) [Compound 633, 6-(4-(4-((2,6-dioxopiperidin-3-yl)amino)-2-fluorophenyl)piperidin-1-yl)spiro[3.3]heptan-2-yl 4-((5-fluoro-4-(3-(2-oxopyridin-1 (2H)-yl)phenyl)pyrimidin-2-yl)amino)piperidine-1-carboxylate] was below 500 nM; that for `Cn1nc(N2CCC(=O)NC2=O)c2ccc(C3CCN(CC4(O)CCN(C(=O)O[C@H]5CC[C@H](Nc6ncc(F)c(-c7cccc(-c8ccccc8)c7)n6)CC5)CC4)CC3)cc21` [Compound 635, trans-4-((4-([1,1′-biphenyl]-3-yl)-5-fluoropyrimidin-2-yl)amino)cyclohexyl 4-((4-(3-(2,4-dioxotetrahydropyrimidin-1 (2H)-yl)-1-methyl-1H-indazol-6-yl)piperidin-1-yl)methyl)-4-hydroxypiperidine-1-carboxylate] was below 500 nM.
Consider `Cn1nc(N2CCC(=O)NC2=O)c2ccc(C3CCN(CC4CCN(C(=O)O[C@H]5CC[C@H](Nc6ncc(F)c(-c7cccc(-c8ccccc8)c7)n6)CC5)CC4)CC3)cc21` [Compound 636, trans-4-((4-([1,1′-biphenyl]-3-yl)-5-fluoropyrimidin-2-yl)amino)cyclohexyl 4-((4-(3-(2,4-dioxotetrahydropyrimidin-1 (2H)-yl)-1-methyl-1H-indazol-6-yl)piperidin-1-yl)methyl)piperidine-1-carboxylate], for which the DC50 is below 500 nM.
On the same count and under the same terms, the value for `O=C1CCC(Nc2ccc(N3CCC(N4CC5(CC(OC(=O)N6CCC(Nc7ncc(F)c(-c8cccc(-n9ccccc9=O)c8)n7)CC6)C5)C4)CC3)c(F)c2)C(=O)N1` (centres unmarked) [Compound 637, 2-(1-(4-((2,6-dioxopiperidin-3-yl)amino)-2-fluorophenyl)piperidin-4-yl)-2-azaspiro[3.3]heptan-6-yl 4-((5-fluoro-4-(3-(2-oxopyridin-1 (2H)-yl)phenyl)pyrimidin-2-yl)amino)piperidine-1-carboxylate] was below 500 nM; that for `O=C1CCC(Nc2ccc(C3CCN(C[C@H]4CC[C@H](COC(=O)N5CCC(Nc6ncc(F)c(-c7cccc(-c8ccccc8)c7)n6)CC5)CC4)CC3)c(F)c2)C(=O)N1` (stereo partly drawn) [Compound 640, trans-(4-((4-(4-((2,6-dioxopiperidin-3-yl)amino)-2-fluorophenyl)piperidin-1-yl)methyl)cyclohexyl)methyl 4-((4-([1,1′-biphenyl]-3-yl)-5-fluoropyrimidin-2-yl)amino)piperidine-1-carboxylate] was below 500 nM.
Regarding `Cn1nc(C2CCC(=O)NC2=O)c2ccc(N3CCN(CC4CCN(C(=O)O[C@H]5CC[C@H](Nc6ncc(F)c(-c7cccc(-c8ccccc8)c7)n6)CC5)CC4)CC3)cc21` (stereo partly drawn) [Compound 643, trans-4-((4-([1,1′-biphenyl]-3-yl)-5-fluoropyrimidin-2-yl)amino)cyclohexyl 4-((4-(3-(2,6-dioxopiperidin-3-yl)-1-methyl-1H-indazol-6-yl)piperazin-1-yl)methyl)piperidine-1-carboxylate], the DC50 is below 500 nM.
On the same count and under the same terms, the value for `O=C1CCC(Nc2ccc(C3CCN(C[C@H]4CC[C@H](COC(=O)N5CCC(Nc6ncc(F)c(-c7cccc(-n8ccccc8=O)c7)n6)CC5)CC4)CC3)c(F)c2)C(=O)N1` (stereo partly drawn) [Compound 644, trans-(4-((4-(4-((2,6-dioxopiperidin-3-yl)amino)-2-fluorophenyl)piperidin-1-yl)methyl)cyclohexyl)methyl 4-((5-fluoro-4-(3-(2-oxopyridin-1 (2H)-yl)phenyl)pyrimidin-2-yl)amino)piperidine-1-carboxylate] was below 500 nM.

The assay is the same for the next values; noted with them: read-out: HiBIT-degradation MOLT4 PIP4k2C DC50 (6 hours, marked *); 6 hours of incubation time, rather than 24 hours; MOLT-4, top concentration 10 micromolar.
As to `Cn1nc(N2CCC(=O)NC2=O)c2ccc(N3CCN(CC4CCN(C(=O)O[C@H]5CC[C@H](Nc6ncc(F)c(-c7cccc(-c8ccccc8)c7)n6)CC5)CC4)CC3)cc21` [Compound 634, trans-4-((4-([1,1′-biphenyl]-3-yl)-5-fluoropyrimidin-2-yl)amino)cyclohexyl 4-((4-(3-(2,4-dioxotetrahydropyrimidin-1 (2H)-yl)-1-methyl-1H-indazol-6-yl)piperazin-1-yl)methyl)piperidine-1-carboxylate], the DC50 was below 500 nM.
Consider `O=C1CCC(Nc2ccc(C3CCN(CCC4(O)CCN(C(=O)O[C@H]5CC[C@H](Nc6ncc(F)c(-c7cccc(-n8ccccc8=O)c7)n6)CC5)CC4)CC3)c(F)c2)C(=O)N1` (stereo partly drawn) [Compound 641, trans-4-((5-fluoro-4-(3-(2-oxopyridin-1 (2H)-yl)phenyl)pyrimidin-2-yl)amino)cyclohexyl 4-(2-(4-(4-((2,6-dioxopiperidin-3-yl)amino)-2-fluorophenyl)piperidin-1-yl)ethyl)-4-hydroxypiperidine-1-carboxylate], for which the DC50 is below 500 nM.
On the same count and under the same terms, the value for `Cn1nc(C2CCC(=O)NC2=O)c2ccc(N3CCN(CC4(O)CCN(C(=O)O[C@H]5CC[C@H](Nc6ncc(F)c(-c7cccc(-c8ccccc8)c7)n6)CC5)CC4)CC3)cc21` (stereo partly drawn) [Compound 642, trans-4-((4-([1,1′-biphenyl]-3-yl)-5-fluoropyrimidin-2-yl)amino)cyclohexyl 4-((4-(3-(2,6-dioxopiperidin-3-yl)-1-methyl-1H-indazol-6-yl)piperazin-1-yl)methyl)-4-hydroxypiperidine-1-carboxylate] was below 500 nM.

These data come from patent US20260355196A1, “INHIBITORS AND DEGRADERS OF PIP4K PROTEIN” (Larkspur Biosciences, Inc., priority 2023, published 2026).
